Laboratory results taken from patent US12421279B2, “Cyclic peptide antiviral agents and methods using same” (priority 2016, dated 2025).
Several values for one entry are separate records, joined by “and”; a condition that tells them apart may be missing. Equal entries are not always repeated. Where two headings read alike, the source gives them in different places. *1 amine or outer side, *2 acyl side, *3 side chain or, on linkers, in order; H or OH if unused. Where a SMILES comes first, the peptide text is derived from it. Bridges are numbered along the chain shown (N, C = ends). [ ]: non-standard residue; d: D form. X1 = O=C([C@@H]1C[C@H](n2cc(-c3ccc(-c4cccs4)cc3)nn2)CN1[*:1])[*:2]; X9 = CCc1ccc(-c2cn([C@H]3C[C@@H](C(=O)[*:2])N([*:1])C3)nn2)cc1; Bta = N[C@@H](Cc1csc2ccccc12)C(=O)O; Chg = N[C@H](C(=O)O)C1CCCCC1; Dab = NCC[C@H](N)C(=O)O

Columns and labels:
[1] = target: T1, HIV-1YU-2 gp120 binding to sCD4 (Human immunodeficiency virus type 1 group M subtype B, UniProt P35961); experiment: SPR competition assay: inhibition of gp120 binding to CD4; settings: for inhibition of gp120 binding to CD4 (in words): SPR competition
T1 construct: The purified DNA encoding gp120 YU-2 was transfected into HEK 293F cells; made in house; host or cells: HEK 293F
Experimental: (§1) SPR experiments are performed on a Biacore 3000 optical biosensor (GE Healthcare). All experiments are carried out at 25° C. using standard PBS buffer pH=7.4 with 0.005% surfactant Tween and 2% DMSO.
(§2) Three flow cells in the CM5 chip were used for amine coupling of different ligands through standard 1-ethyl-3-(3-(dimethylamino) propyl) carbodiimide (EDC)/N-hydroxysuccinamide (NHS) chemistry. Flow cell 1 containing 2000 RUs of immobilized antibody 2B6R (α-human IL5R) served as a negative control for flow cells 2 and 3 each of which contained 2000 RUs of immobilized CD4 and 17b respectively.
(§3) For kinetic analyses, typically 2000-3000 RUs of protein reagents are immobilized on SPR chips, and analytes are passed over the surface at 50-100 μL/min. Surface regeneration is achieved by a 5 μL injection of 10 mM HCl solution at 100 μL/min. […] Regeneration of the surface is achieved by a single 10 second pulse of 1.3 M NaCl/35 mM NaOH and single 5-second pulse of 10 mM glycine, pH 1.5, for sCD4 and mAb 17b, respectively.
(§4) Data analysis of SPR competition data was performed using BIAevaluation v4.1.1 software (GE). To correct for nonspecific binding, response signals from buffer injection and from control flow cell were subtracted from all sensorgrams. Inhibition potencies were determined by calculating the inhibitor concentration required for 50% inhibition of maximal binding (IC50). The inhibition curve was plotted and then fitted using the four-parameter equation as shown below using OriginPro 8 graphing software.
(§5) The cyclic peptides of the invention are tested against HIV-1 gp120 by SPR competition assays. A mixture of the cyclic peptide/gp120 solutions is passed over SPR chip immobilized with CD4 and 17b separately. The competition assay evaluates the ability of each peptide to inhibit the binding between gp120 and both soluble CD4 and 17b antibody, a surrogate for co-receptor.

[2] = test system: HIV-1Bal.01; settings: for IC50: read-out: HIV-1Bal.01 infection inhibition IC50, HIV-1Bal.01 pseudovirus, HOS.T4.R5 cells
[3] = target: T2, wild type gp120 YU-2 (Human immunodeficiency virus type 1 group M subtype B, UniProt P35961); experiment: Isothermal titration calorimetry binding to gp120; design: species or system HIV-1
T2 construct: into 30 μM of YU2 full-length gp120 at 25° C; made in house; host or cells: HEK 293F
Experimental: FIGS. 9A-9C illustrate cPT binding and thermodynamic profile of monomeric wild type gp120 YU-2 for cPTs 3 (FIGS. 9A and 9C) and 36 (FIGS. 9B and 9C). Compound solution, 390 μM (for 3) or 200 μM (for 36), was titrated in 8 μL steps into 30 μM of YU2 full-length gp120 at 25° C. in the reaction chamber of a VP-ITC instrument using 1×PBS buffer at pH 7.3. The resulting heat changes were integrated, and the values obtained were fitted to a quadratic binding equation (one site binding model).
cPT dissociation constants were determined at 25° C. on a VP-Isothermal Titration calorimeter (VP-ITC) system (MicroCal™, GE Healthcare, Freiburg). 200 μM (for 36) or 390 μM (for 3) compound solutions were in 8 μL steps titrated into 30 μM of wild type gp120 YU-2 at 25° C. using 1×PBS buffer at pH 7.3. The resulting heat change upon injection was integrated over a time range of 300 sec, and the obtained values were fitted to a standard single-site binding model using ORIGIN®.

[4] = test system: HOS.T4.R5 cells
Experimental: cPTs 36 and 37 were tested for cytotoxicity in vitro with HOS.T4.R5 cells. The latter were seeded at […] per well and incubated with peptides as described elsewhere herein for the infection inhibition assays. Cell viability was determined using the tetrazolium salt premix reagent WST-1 from TaKaRa Bio, Inc., by following the manufacturer's protocol. The formazan product was measured 24 h post-exposure using a microplate reader (Molecular Devices) at an absorbance wavelength of 450 nm.

[5] = target: T3, HIV-1YU-2 gp120 binding to mAb 17b (Human immunodeficiency virus type 1 group M subtype B, UniProt P35961); experiment: SPR competition assay: inhibition of gp120 binding to 17b (co-receptor surrogate); settings: for inhibition of gp120 binding to 17b (in words): SPR competition
T3 construct: The purified DNA encoding gp120 YU-2 was transfected into HEK 293F cells; made in house; host or cells: HEK 293F
Experimental: as §1, §2, §3, §4, §5

[6] = PBS buffer or PBS buffer with 5% DMSO
Excerpt: Each cPT was synthesized starting from the corresponding amino acids: Asn for 34 and Dab for 35. Designation of “poor” and “good” solubility was based on behavior of cPT in PBS buffer or PBS buffer with 5% DMSO.

[7] = test system: subtype A, B and C isolates; settings: read-out: IC50 range, neutralizes viral infection by subtype A; cited from earlier work
[8] = test system: viruses pseudotyped with VSV-G; settings: background; cited from earlier work
[9] = target: monomeric gp120 (Human immunodeficiency virus type 1 group M subtype B, UniProt P35961); settings: background; cited from earlier work
[10] = test system: tissue explants model; settings: concentrations up to 100 μM; cited from earlier work

With `CC[C@H](C)[C@@H]1NC(=O)[C@H](CC(N)=O)NC(=O)[C@@H](N)CC(=O)NCCCC[C@@H](C(N)=O)NC(=O)[C@H](Cc2c[nH]c3ccccc23)NC(=O)[C@@H]2C[C@H](n3cc(-c4ccc(-c5cccs5)cc4)nn3)CN2C1=O` [cPT 36, (3S,6S,14S,17S,20S,24S,25aS)-3-((1H-indol-3-yl)methyl)-14-amino-17-(2-amino-2-oxoethyl)-20-((S)-sec-butyl)-1,4,12,15,18,21-hexaoxo-24-(4-(4-(thiophen-2-yl)phenyl)-1H-1,2,3-triazol-1-yl)tetracosahydro-1H-pyrrolo[2,1-f][1,4,7,10,13,18]hexaazacyclotricosine-6-carboxamide] (H-DNI[X1]WK-NH2; lactam 1-6) the IC50 [1] was ~66 nM, the “inhibition of gp120 binding to CD4 (in words)” value [1] was “inhibited gp120 binding to both CD4 and 17b” and the “inhibition of gp120 binding to CD4 (in words)” value ([1]; listed as 29N-2) was “dual inhibitors of both CD4 and 17b binding to gp120”. For the same molecule, the “fold improvement in potency compared to 23” value ([2]; infection inhibition) was > 2 fold, the IC50 [2] was 105 nM and ~100 nM and the IC50 ([2]; listed as 29N-2) was ~105 nM. The Kd [3] was 350 nM, the ΔH ([3]; ITC, 25° C.) was -4.07 ± 0.06 kcal/mol and the ΔS ([3]; ITC, 25° C.) was 0.0159 kcal/mol. The “−TΔS” value ([3]; ITC, 25° C.) was -4.74 kcal/mol, the “selectivity index (SI)” value ([4]; estimated from the IC50 and the CC50 values) was > 1000 and the “cytotoxicity (cell viability)” value ([4]; highest concentrations used 100 μM, 24 h post-exposure) was “no cytotoxicity was detected”. The IC50 [5] was ~56 nM, the “inhibition of gp120 binding to 17b (in words)” value [5] was “inhibited gp120 binding to both CD4 and 17b” and the “inhibition of gp120 binding to 17b (in words)” value ([5]; listed as 29N-2) was “dual inhibitors of both CD4 and 17b binding to gp120”.
For `CCc1ccc(-c2cn([C@H]3C[C@H]4C(=O)N[C@@H](Cc5csc6ccccc56)C(=O)N[C@H](C(N)=O)CCCCNC(=O)C[C@H](N)C(=O)N[C@@H](CC(N)=O)C(=O)N[C@@H](C5CCCCC5)C(=O)N4C3)nn2)cc1` [compound 34] (H-DN[Chg][X9][Bta]K-NH2; lactam 1-6), the solubility [6] was “poor solubility”.
With `CCc1ccc(-c2cn([C@H]3C[C@H]4C(=O)N[C@@H](Cc5csc6ccccc56)C(=O)N[C@H](C(N)=O)CCCCNC(=O)C[C@H](N)C(=O)N[C@@H](CCN)C(=O)N[C@@H](C5CCCCC5)C(=O)N4C3)nn2)cc1` [compound 35] (H-D[Dab][Chg][X9][Bta]K-NH2; lactam 1-6) the solubility [6] was “better solubility”.
In the case of “(S)-4-((S)-2-((S)-2-((2S,4S)-1-(L-arginyl-L-isoleucyl-L-asparaginyl-L-asparaginyl-L-alloisoleucyl)-4-(4-ferrocenyl-1H-1,2,3-triazol-1-yl)pyrrolidine-2-carboxamido)-3-(1H-indol-3-yl) propanamido)-3-hydroxypropanamido)-5-(((S)-1-(((S)-1-(((S)-1-amino-4-(methylthio)-1-oxobutan-2-yl)amino)-4-(methylthio)-1-oxobutan-2-yl)amino)-1-oxopropan-2-yl)amino)-5-oxopentanoic acid [HNG156]”, the IC50 [7] is given as 80 to 62500 nM, the “neutralization of VSV-G pseudotyped viruses” value [8] is given as “not viruses pseudotyped with VSV-G” and the Kd [9] is given as 7 nM. For the same molecule, the toxicity [10] was “no detectable toxicity”.
